Measured values taken from the CheMixHub ionic liquid set.
± gives the uncertainty stated by the source.

Experiment: xn = mol fraction of the nth substance listed

CC1CC(=O)O1 (configuration not stated) + CCCC[n+]1ccn(C)c1.O=S(=O)([N-]S(=O)(=O)C(F)(F)F)C(F)(F)F
electrical conductivity [S/m], 100 kPa, frequency 0.01 MHz
Conditions	293.15 K	298.15 K	303.15 K	308.15 K	313.15 K	318.15 K	323.15 K
x2 = 0.0493	0.874 ± 0.036	0.942 ± 0.039	1.02 ± 0.042	1.1 ± 0.045	1.2 ± 0.05	1.29 ± 0.053	1.38 ± 0.057
x2 = 0.1001	1.1 ± 0.044	1.22 ± 0.049	1.34 ± 0.054	1.48 ± 0.06	1.62 ± 0.065	1.74 ± 0.07	1.89 ± 0.076
x2 = 0.1526	1.21 ± 0.048	1.34 ± 0.054	1.49 ± 0.06	1.64 ± 0.066	1.8 ± 0.072	1.94 ± 0.078	2.12 ± 0.085
x2 = 0.2001	1.2 ± 0.048	1.32 ± 0.053	1.47 ± 0.059	1.62 ± 0.065	1.79 ± 0.072	1.97 ± 0.079	2.16 ± 0.086
x2 = 0.3001	1.02 ± 0.041	1.15 ± 0.046	1.28 ± 0.051	1.42 ± 0.057	1.58 ± 0.063	1.76 ± 0.071	1.96 ± 0.078
x2 = 0.4013	0.782 ± 0.031	0.883 ± 0.035	1 ± 0.04	1.13 ± 0.045	1.26 ± 0.051	1.43 ± 0.057	1.61 ± 0.065
x2 = 0.5004	0.619 ± 0.025	0.701 ± 0.028	0.804 ± 0.032	0.91 ± 0.037	1.02 ± 0.041	1.16 ± 0.047	1.3 ± 0.052
x2 = 0.5995	0.505 ± 0.02	0.58 ± 0.023	0.67 ± 0.027	0.754 ± 0.03	0.857 ± 0.034	0.976 ± 0.039	1.1 ± 0.044
x2 = 0.6929	0.437 ± 0.018	0.504 ± 0.02	0.584 ± 0.023	0.665 ± 0.027	0.758 ± 0.03	0.865 ± 0.035	0.992 ± 0.04
x2 = 0.814	0.39 ± 0.016	0.451 ± 0.018	0.521 ± 0.021	0.592 ± 0.024	0.677 ± 0.027	0.775 ± 0.031	0.886 ± 0.035
x2 = 0.9001	0.353 ± 0.014	0.417 ± 0.017	0.484 ± 0.019	0.557 ± 0.022	0.645 ± 0.026	0.74 ± 0.03	0.837 ± 0.033

CC1COC(=O)O1 (configuration not stated) + CCCC[n+]1ccn(C)c1.O=S(=O)([N-]S(=O)(=O)C(F)(F)F)C(F)(F)F
101.3 kPa
Conditions	viscosity [mPa·s]
293.15 K, x2 = 0.8776	51 ± 1.1
298.15 K, x2 = 0.1013	4.029 ± 0.085
298.15 K, x2 = 0.7	28.89 ± 0.6
303.15 K, x2 = 0.8079	29.79 ± 0.62
303.15 K, x2 = 0.8776	33.75 ± 0.71
308.15 K, x2 = 0.1013	3.249 ± 0.068
308.15 K, x2 = 0.1557	4.102 ± 0.086
308.15 K, x2 = 0.4128	9.65 ± 0.2
308.15 K, x2 = 0.5045	12.33 ± 0.26
313.15 K, x2 = 0.5045	10.67 ± 0.22
318.15 K, x2 = 0.7	15.35 ± 0.32
323.15 K, x2 = 0.7	13.28 ± 0.28
333.15 K, x2 = 0.8776	13.61 ± 0.28
338.15 K, x2 = 0.3071	3.659 ± 0.077
348.15 K, x2 = 0	1.14 ± 0.024
348.15 K, x2 = 0.1557	2.025 ± 0.043

CCCCCCCCO + CCCC[n+]1ccn(C)c1.O=S(=O)([N-]S(=O)(=O)C(F)(F)F)C(F)(F)F
100 kPa
Conditions	electrical conductivity, x2 = 0.03335 [S/m]	viscosity, x2 = 0 [mPa·s]	viscosity, x2 = 0.8499 [mPa·s]	viscosity, x2 = 0.8986 [mPa·s]
294.5 K	0.02 ± 0.01	–	–	–
298 K	–	7.614 ± 0.083	37.77 ± 0.89	40.18 ± 0.98

O=C1CCCCO1 + CCCC[n+]1ccn(C)c1.O=S(=O)([N-]S(=O)(=O)C(F)(F)F)C(F)(F)F
100 kPa, frequency 0.01 MHz
Conditions	electrical conductivity [S/m]
293.15 K, x2 = 0.1504	0.602 ± 0.024
293.15 K, x2 = 0.4006	0.589 ± 0.024
293.15 K, x2 = 0.8475	0.346 ± 0.014
298.15 K, x2 = 0.1004	0.428 ± 0.019
298.15 K, x2 = 0.4006	0.665 ± 0.027
298.15 K, x2 = 0.5005	0.594 ± 0.024
298.15 K, x2 = 0.5999	0.484 ± 0.019
303.15 K, x2 = 0.1004	0.471 ± 0.02
303.15 K, x2 = 0.1504	0.717 ± 0.029
308.15 K, x2 = 0.0532	0.209 ± 0.013
308.15 K, x2 = 0.1004	0.512 ± 0.022
308.15 K, x2 = 0.2988	0.9 ± 0.036
308.15 K, x2 = 0.7214	0.609 ± 0.024
318.15 K, x2 = 0.1999	1.04 ± 0.042
323.15 K, x2 = 0.0532	0.263 ± 0.016
323.15 K, x2 = 0.1504	1 ± 0.041
323.15 K, x2 = 0.1999	1.13 ± 0.045
323.15 K, x2 = 0.7214	0.895 ± 0.036

Nc1ccccc1 + CCCC[n+]1ccn(C)c1.O=S(=O)([O-])C(F)(F)F
Conditions	viscosity [mPa·s]
323.15 K, 100 kPa, x1 = 1	1.927 ± 0.085

CCCCOCCO + CCCC[n+]1ccn(C)c1.[Br-]
100 kPa, x2 = 0
Conditions	viscosity [mPa·s]
298.15 K	2.79 ± 0.28
303.15 K	2.44 ± 0.25
308.15 K	2.22 ± 0.22
313.15 K	1.98 ± 0.2

CCCOCCO + CCCC[n+]1ccn(C)c1.[Br-]
100 kPa, x2 = 0
Conditions	viscosity [mPa·s]
298.15 K	2.38 ± 0.24
303.15 K	2.11 ± 0.21
308.15 K	1.88 ± 0.19
313.15 K	1.69 ± 0.17

O + CCCC[n+]1ccn(C)c1.[Br-]
101 kPa, x2 = 0
Conditions	electrical conductivity [S/m]
288.15 K	0.000101 ± 1.1e-06
298.15 K	0.00015 ± 1.6e-06
308.15 K	0.000216 ± 2.3e-06

CC1COC(=O)O1 (configuration not stated) + CCCCn1cc[n+](C)c1C.O=S(=O)([N-]S(=O)(=O)C(F)(F)F)C(F)(F)F
101.3 kPa, x2 = 0
Conditions	viscosity [mPa·s]
288.15 K	3.063 ± 0.064
293.15 K	2.746 ± 0.058
343.15 K	1.213 ± 0.026

O + CCCO + CCCCCCCCCCCCOS(=O)(=O)[O-].[Na+]
Conditions	electrical conductivity [S/m]
298 K, 100 kPa, frequency 0.001 MHz, x2 = 0, x1 = 1	0.0005 ± 0.00062

CCC[N+]1(C)CCCC1.O=S(=O)([N-]S(=O)(=O)C(F)(F)F)C(F)(F)F + CCC[N+]1(C)CCCC1.N#C[N-]C#N
101 kPa, x2 = 0
Conditions	electrical conductivity [S/m]	viscosity [mPa·s]
313.15 K	0.678 ± 0.068	34.4 ± 3.6
353.15 K	–	11.6 ± 1.2

CCC[N+]1(C)CCCC1.O=S(=O)([N-]S(=O)(=O)C(F)(F)F)C(F)(F)F + CCC[N+](C)(C)C.O=S(=O)([N-]S(=O)(=O)C(F)(F)F)C(F)(F)F
Conditions	viscosity [mPa·s]
298.15 K, 101.3 kPa, x2 = 0	61 ± 12

CC[n+]1ccn(C)c1.N#C[N-]C#N + CCO
viscosity [mPa·s]
Conditions	298.15 K	303.15 K	308.15 K	313.15 K	318.15 K	323.15 K	328.15 K	343.15 K
100 kPa, x1 = 0.0997	1.85 ± 0.6	1.71 ± 0.6	1.56 ± 0.6	1.44 ± 0.6	1.33 ± 0.6	1.23 ± 0.6	–	–
100 kPa, x1 = 0.196	2.7 ± 0.6	2.47 ± 0.6	2.25 ± 0.6	2.07 ± 0.6	1.9 ± 0.6	1.75 ± 0.6	–	–
100 kPa, x1 = 0.3001	3.66 ± 0.6	3.31 ± 0.6	3.02 ± 0.6	2.76 ± 0.6	2.53 ± 0.6	2.33 ± 0.6	–	–
100 kPa, x1 = 0.3945	4.62 ± 0.6	4.16 ± 0.6	3.78 ± 0.6	3.45 ± 0.6	3.16 ± 0.6	2.9 ± 0.6	–	–
100 kPa, x1 = 0.4997	5.82 ± 0.6	5.23 ± 0.6	4.72 ± 0.6	4.29 ± 0.6	3.92 ± 0.6	3.59 ± 0.6	–	–
100 kPa, x1 = 0.5993	7.11 ± 0.6	6.35 ± 0.6	5.71 ± 0.6	5.16 ± 0.6	4.7 ± 0.6	4.29 ± 0.6	–	–
100 kPa, x1 = 0.7013	8.69 ± 0.61	7.71 ± 0.61	6.89 ± 0.6	6.19 ± 0.6	5.61 ± 0.6	5.1 ± 0.6	–	–
100 kPa, x1 = 0.8014	10.45 ± 0.81	9.21 ± 0.61	8.17 ± 0.61	7.3 ± 0.61	6.57 ± 0.6	5.95 ± 0.6	–	–
100 kPa, x1 = 0.8929	11.97 ± 0.81	10.48 ± 0.81	9.25 ± 0.61	8.23 ± 0.61	7.37 ± 0.61	6.65 ± 0.61	–	–
100 kPa, x1 = 1	13.09 ± 0.82	11.39 ± 0.81	10 ± 0.81	8.86 ± 0.61	7.92 ± 0.61	7.13 ± 0.61	–	–
101 kPa, x2 = 0	–	–	–	10.07 ± 0.42	–	–	7.26 ± 0.3	–
101 kPa, x2 = 0.1981	–	–	–	–	–	–	–	4.25 ± 0.18
101 kPa, x2 = 0.3596	–	–	–	5.68 ± 0.25	–	–	4.29 ± 0.19	–
101 kPa, x2 = 0.6028	4.42 ± 0.2	–	–	–	–	–	–	–
101 kPa, x2 = 0.7678	2.72 ± 0.12	–	–	–	–	–	–	–
